The values below come from patent US8895522B2, “Composition and method for the prevention, treatment and/or alleviation of an inflammatory disease” (Index Pharmaceuticals AB, priority 2005, dated 2014).

The test system of data set [1] is murine spleen cells. The data set is described as follows: Induction of IL-10 from murine spleen cells (ELISpot). The data set is classed as cell-based. To be noted: mouse splenocytes, 48 hours incubation; for induction of IL-10 (positive spots per well): FIG. 9. As to the method: (§1) The spleen was excised from a test animal. A single cell suspension was prepared using a nylon cell strainer (100 μm). The cells were washed once in complete RPMI medium at 1200 rpm for 7-10 minutes, whereupon the supernatant was poured off and the cells resuspended. 1 ml of “red blood cell lysing buffer” was added, and the mixture incubated for 1-2 minutes at RT. 5 ml of complete RPMI was added and the mixture centrifuged as above (C2).
(§2) The supernatant was poured off, the pellet resuspended and another 5 ml of complete RPML added. The cells were counted by dilution in trypan blue, so that between 50-100 cells were counted in the area.
(§3) Approximately 500,000 mouse splenocyte cells per well were incubated for 48 hours in the presence of the different oligonucleotides at the concentrations indicated. Specifically, SEQ.ID.NO 3, SEQ.ID.NO 4, and SEQ.ID.NO 7. Following incubation the wells were developed according to the kit suppliers recommendations and the average number of positive spots per well were determined using a AID ELISpot reader system, (Strassberg Germany).
(§4) Elispot assays where performed according to the manufactures recommended guidelines (MabTech) and the plates were analyzed using an AID ELISpot reader system (Autoimmun Diagnostika GmbH, Strassberg, Germany).

Data set [2] concerns LPS-induced airway inflammation in mice. Nature of the data set: Third LPS induced asthma study in mice, BALF cell counts. To be noted: for number of infiltrating inflammatory cells in the BAL fluid: oligonucleotides 150 μg/animal tracheal 18 h prior to LPS, dexamethasone 5 mg/kg i.p. 1 h before, FIG. 6. The data set is classed as in vivo. As to the method:
As with examples 1 and 2, aim of the study was to examine the pharmaceutical effects of SEQ. ID. NO. 3 using airway inflammation as disease endpoint, and to compare the efficacy with that of corticosteroids. In addition, a number of control oligonucleotides were included being SEQ.ID.NO 4, and SEQ.ID.NO 7. The induction of LPS induced asthma and the protocol of analyses was conducted as described in Example 2.
Briefly, LPS-induced airway inflammation in mice was treated with SEQ.ID.NOs 3, 4 and 7 (150 μg/animal) administered by tracheal instillation 18 h prior to challenge with 5 μg LPS. The untreated group represents healthy individuals and mice in the control group were given solvent only (H2O+LPS). The control treatment of dexamethasone (5 mg/kg, i.p.) was given one hour before LPS instillation. Analysis of BAL fluid was performed 20 hours after LPS instillation. The total number of leukocytes and neutrophils in BAL fluid is shown. Data expressed as mean±SD (n=6). ***p<0.001, *p<0.05, using One-way ANOVA with Dunnett's post hoc corrections versus control group.

Data set [3] deals with murine spleen cells. Nature of the data set: Induction of IFN-gamma from murine spleen cells (ELISpot). The format is cell-based. The note with it: mouse splenocytes, 48 hours incubation, FIG. 10. As to the method:
as §1, §2, §3
Regarding the production of IFN-gamma, mouse splenocytes were treated as described above, with the intention to monitor levels of IFN-gamma by Elispot asssy. Identical conditions and concentrations of oligonucleotides where used.
as §4

Data set [4] deals with human PBMC. Nature of the data set: Induction of IL-10 from healthy human PBMC (ELISpot). The data set is classed as cell-based. The note with it: PBMC from 5 healthy individuals, 48 hours; for induction of IL-10 producing cells: FIG. 11. As to the method:
(§5) Whole blood was obtained from healthy blood donors. PBMCs were prepared from 30 ml whole blood according to the following protocol:
(§6) 30 ml blood was transferred directly into heparinized tubes. All blood was transferred into one 50 ml Falcon tube and PBS added up to 50 ml. 15 ml Ficoll (17-1440-03, obtained from Amersham Bioscience AB, Uppsala) was then added into two falcon tubes (50 ml). The PBS-treated blood was then carefully added on the top of to Ficoll, 25 ml to each tube. The tubes were then centrifuged 25 min at 1700 RPM at RT (20° C.).
(§7) RPMIc medium was prepared under sterile conditions, using a 0.22 uM filter. (RPMIc denotes a RPMI 1640 culture medium (R0883, Sigma) supplemented with 5% heat-inactivated (56° C.,1 h) FCS 1.5 mM L-glutamine (G7513, Sigma), 100 U/ml penicillin and 100 ug/ml streptomycin, PEST (P0781, Sigma), hepes (H0887, Sigma), and gentamycin (G1272, Sigma)).
(§8) The interphase was carefully pipetted from the two tubes into 2x 50mi Falcon tubes. PBS was added up to 50 ml in each tube, and the tubes centrifuged for 10 min at 1700 RPM (4° C.).
(§9) The supernatant was discarded, and PBS added to 30 ml, whereupon the tubes were centrifuged at 10 min at 1500 RPM (4° C.). Again, the supernatant was discarded, 10 ml PBS added, and the pellets from the two falcon tubes pooled.
(§10) The cells were counted and left in PBS, then centrifuged at 1200 RPM, 10 min. Medium was then added to obtain the concentration of interest, and the cells counted (16 squares)×3. The mean value was calculated and multiplied with the dilution factor×10^4=cells/ml. Diluting the cells to 10 million/ml will result in 500.000 cells/50 ul medium, 6 million/ml will be 300.000/50 ul medium.
as §4
Approximately 500,000 PBMC cells per well, derived from blood from healthy human donors, were incubated for 48 hours in the presence of the different oligonucleotides. Specifically, SEQ.ID.NO 1, SEQ.ID.NO 2, SEQ.ID.NO 6 and SEQ.ID.NO 8. Following incubation, the wells were developed according to the kit supplier's recommendations and the average number of positive cells producing IL-10 per well were counted using an AID ELISpot reader system, (Autoimmun Diagnostika GmbH, Strassberg, Germany).

In data set [5] the test system is human PBMC. The data set is described as follows: Induction of IFN-gamma from healthy human PBMC (ELISpot). The data set is classed as cell-based. The note with it: PBMC from 7 healthy individuals, 48 hours, FIG. 12. As to the method:
as §5, §6
RPMIc medium was prepared under sterile conditions, using a 0.22 uM filter. (RPMIc denotes a RPMI 1640 culture medium (R0883, Sigma) supplemented with 5% heat-inactivated (56° C.,1 h) FCS 1.5 mM L-glutamine (G7513, Sigma), 100 U/ml penicillin and 100 ug/ml streptomycin, PEST (P0781, Sigma), hepes (H0887, Sigma), and gentamycin (G1272, Sigma)). […]
The cells were counted and left in PBS, then centrifuged at 1200 RPM, 10 min. Medium was then added to obtain the concentration of interest, and the cells counted (16 squares)×3. The mean value was calculated and multiplied with the dilution factor×10^4=cells/ml. […]
Elispot assays where performed according to the manufactures recommended guidelines (MabTech) and the plates were analyzed using an AID ELISpot reader system (Autoimmun Diagnostika GmbH, Strassberg, Germany). […]

For data set [6], the system named is human PBMC. Nature of the data set: Induction of IFN-alpha from healthy human PBMC (ELISpot). The note with it: PBMC from 10 healthy individuals, 48 hours; for induction of IFN-alpha producing cells: FIG. 13. The data set is classed as cell-based. As to the method:
as §5, §6, §7, §8, §9, §10, §4
For this assay again 500,000 PBMC cells per well, derived from healthy human blood were incubated for 48 hours in the presence of the different oligonucleotides. Specifically, SEQ.ID.NO 1, SEQ.ID.NO 2, and SEQ.ID.NO 8. Following incubation, the wells were developed according to the kit suppliers recommendations and the average number of positive cells producing IFN-alpha per well were determined using an AID ELISpot reader.

In the case of “5′-G*A*A*ACAGATGCTCCAT*G*G*T-3′ (antisense GAAACAGATGCTCCATGGT; listed as DNA, chemistry not fully specified) [SEQ.ID.NO 4, (Mu p65 rev)AS]”, the “induction of IL-10 (positive spots per well)” value in data set [1] was “no induction”. In addition, the “influx of leukocytes in BALF compared to the control group” value in data set [2] (150 μg/animal, FIG. 7, significance if the non-responding control individual is excluded) is recorded as “no effect”. Also, the “influx of neutrophils in BALF compared to the control group” value in data set [2] (150 μg/animal, FIG. 8, significance if the non-responding control individual is excluded) was “no effect”. Moreover, the “number of infiltrating inflammatory cells in the BAL fluid” value in data set [2] is reported as “little effect”. The “induction of IFN-gamma compared to medium alone” value in data set [3] is “no such inducing potential”.
For “5′-G*G*A*ACAGTTGCTCCAT*G*G*C-3′ (antisense GGAACAGTTGCTCCATGGC; listed as DNA, chemistry not fully specified) [SEQ.ID.NO 2, (Hu p65 rev)AS]”, in data set [4], the “concentration from which IL-10 producing cells are induced” value is recorded as “around 100 uM” and the “induction of IL-10 producing cells” value is given as “failed to induce IL-10”. Further, in data set [5], the “induction of IFN-gamma producing cells versus background” value is reported as “background level is not exceeded”. Besides, the “induction of IFN-alpha producing cells” value in data set [6] is recorded as “fails to induce any measurable levels of IFN-alpha”.
On to “5′-G*G*T GCA TCG ATG CAG*G*G*G*G*G-3′ (GGTGCATCGATGCAGGGGGG; listed as DNA, chemistry not fully specified) [SEQ.ID.NO 6]”, for which, in data set [4], the “induction of IL-10 producing cells” value was “strong potential to induce IL-10”.
For the substance “5′-T*C*C*A*T*G*A*C*G*T*T*C*C*T*G*A*C*G*T*T-3′ [SEQ.ID.NO 7]”, in data set [1], the “concentration at which IL-10 producing cells are first induced” value stood at 0.1 µM and the “induction of IL-10 (positive spots per well)” value is “induce significant levels of IL-10”. Also, in data set [2], the “number of infiltrating inflammatory cells in the BAL fluid” value is reported as “more dramatic level of inhibition being as effective as dexamethasone”. In data set [3], the “induction of IFN-gamma compared to medium alone” value is “capable of inducing significant levels of IFN-gamma”.
With “5′-T*C*G*T*C*G*T*T*T*T*G*T*C*G*T*T*T*T*G*T*C*G*T*T-3′ [SEQ.ID.NO 8]”, the “induction of IL-10 producing cells” value in data set [4] was “strong potential to induce IL-10”. Besides, in data set [6], the “concentration at which induction of IFN-alpha starts / is apparent” value was 0.1 µM and the “induction of IFN-alpha producing cells” value is “strong potential to induce IFN-alpha”.
